This is an account of results in US6284768A, “Src family SH2 domain inhibitors” (Boehringer Ingelheim Pharmaceuticals, Inc., priority 1999, dated 2001).

Assay [1] concerns the target T1, p56lck GST-SH2 (lck SH2 domain) (Homo sapiens, UniProt P06239).
T1 construct: GST (N)
Description: Receptor-ligand equilibrium binding constants by surface plasmon resonance (biosensor), lck SH2 domain. (In general: Surface plasmon resonance follows binding to a sensor surface in real time, without labels.)

Assay [2] deals with Inter-leukin 2 (IL-2) production by activated Human Primary T Lymphocytes. Description: Primary T cell assay: inhibition of IL-2 production by activated human primary CD4 positive T lymphocytes. It is filed as cell-based. The following applies: Table 5, mean IC50 value, CD4 positive T cells activated with anti-CD3/anti-CD28, IL-2 by ELISA, read-out: IC50 (blocking IL-2 production). The protocol:
Summary of Primary T Cell Assay.
Inhibitors of the lck SH2 domain were assayed for their ability to block Inter-leukin 2 (IL-2) production by activated Human Primary T Lymphocytes. Peripheral blood mononuclear cells were isolated from whole blood by centrifugation in ficoll-Pague partitioning medium. CD4 positive cells were purified using negative selection. […] The compounds, at the appropriate dilutions, were added, and the cells were incubated for 60 minutes at 37° C. The CD4 positive T cells were then activated by the addition of anti-CD3 (60 ng/mL), anti CD28 (500 ng/mL) and goat anti mouse IgG coated beads, and incubated overnight at 37° C. The cells were pelleted, and the supernatents assayed for IL-2 by ELISA.
As SH2 domain containing proteins are intracellular, any therapeutic agent must be able to cross biological membranes. […] These characteristics may be quantified by observing inhibition in IL-2 production in human blood CD4 positive T-lymphocytes after T cell receptor and CD28 cross-linking.

Setting [3] is: Table 1, compounds of formula (II).

The Kd is the equilibrium constant for the complex coming apart. A high value points to weaker binding. A word on the IC50: it is the point on the concentration scale where inhibition reaches its midpoint.

Like-named read-outs stand apart in the source and are kept apart here. Some results are limits rather than exact numbers.

T1 sequence (P06239 127-224 limits assumed): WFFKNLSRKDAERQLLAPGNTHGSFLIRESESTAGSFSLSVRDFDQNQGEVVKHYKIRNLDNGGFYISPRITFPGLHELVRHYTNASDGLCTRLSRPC

In the case of `CCC(C(=O)N[C@@H](Cc1ccc(C(C)(C)C(=O)O)cc1)C(=O)Nc1c(C)ccn(Cc2ccc(OC)cc2)c1=O)c1cccc2ccccc12` (stereo partly shown) [Compound 126], in assay [1] (setting [3]), binding was put at a Kd of 0.68 µM. In addition, the IC50 in assay [2] (Homo sapiens, CD4 positive) came to 39 µM.
For `COc1ccc(Cn2ccc(C)c(NC(=O)C(Cc3ccc(C(C)(C)C(=O)O)cc3)NC(=O)Cc3cccc4ccccc34)c2=O)cc1` (stereo not shown) [Compound 169], in assay [1] (setting [3]), the Kd was found to be 0.52 µM. The IC50 in assay [2] (Homo sapiens, CD4 positive) was found to be 116 µM.
In the same order, the values of `COc1ccc(Cn2ccc(C)c(NC(=O)C(Cc3ccc(C(C)(C)C(=O)O)cc3)NC(=O)C(C)(C)c3ccccc3)c2=O)cc1` (stereo not shown) [Compound 180] are 2.5 µM and 82 µM.
For `COc1ccc(Cn2ccc(C)c(NC(=O)[C@H](Cc3ccc(C(C)(C)C(=O)O)cc3)NC(=O)C(C)(C)c3cccc4ccccc34)c2=O)cc1` [Compound 119], in that order: 3.6 µM and 52 µM.
In assay [1] (setting [3]), `COc1ccc(Cn2ccc(C)c(NC(=O)[C@H](Cc3ccc(C(C)(C)C(=O)O)cc3)NC(=O)N(C)c3cccc4ccccc34)c2=O)cc1` [Compound 133] came in with a Kd of 0.78 µM. Besides, the IC50 in assay [2] (Homo sapiens, CD4 positive) came out at 112 µM.
For the compound `COc1ccc(Cn2ccc(C)c(NC(=O)[C@H](Cc3ccc(C(C)(C)C(=O)O)cc3)NC(=O)Cc3ccc4ccccc4c3)c2=O)cc1` [Compound 97], the dissociation constant Kd in assay [1] (setting [3]) was 0.14 µM. Further, in assay [2] (Homo sapiens, CD4 positive), the IC50 turned out to be 113 µM.
With `COc1ccc(C(C)n2ccc(C)c(NC(=O)C(Cc3ccc(C(C)(C)C(=O)O)cc3)NC(=O)Cc3cccc4ccccc34)c2=O)cc1` (stereo not shown) [Compound 178], the Kd in assay [1] (setting [3]) was 0.68 µM. The IC50 in assay [2] (Homo sapiens, CD4 positive) was found to be 65 µM.
The compound `COc1ccc(Cn2ccc(C)c(NC(=O)[C@H](Cc3ccc(C(C)(C)C(=O)O)cc3)NC(=O)Cc3ccc(NCC(C)(C)C)cc3)c2=O)cc1` [Compound 132] gave a Kd in assay [1] (setting [3]) of 0.25 µM. Further, the IC50 in assay [2] (Homo sapiens, CD4 positive) worked out at 141 µM.
In assay [1] (Table 2, compounds of formula (III)), `COc1ccc(Cn2ncc(C)c(NC(=O)C(Cc3ccc(C(C)(C)C(=O)O)cc3)NC(=O)Cc3ccc4ccccc4c3)c2=O)cc1` (racemic) [Compound 242, 4-[2'-(R,S)-(2""-Naphthylacetyl)amino-3'-[4"-(1'"-carboxy-1'"-methyl)ethyl]benzene]propanoylamino-2-(4-methoxybenzyl)-5-methyl-3-pyridazinone] had a Kd of 0.53 µM. The IC50 in assay [2] (Homo sapiens, CD4 positive) is 60 µM.
`Cc1ccn(CC2(c3ccccc3)CC2)c(=O)c1NC(=O)C(Cc1ccc(C(C)(C)C(=O)O)cc1)NC(=O)Cc1ccc2ccccc2c1` (stereo not shown) [Compound 214] registered a Kd in assay [1] (setting [3]) of 1.2 µM. Also, the half-maximal inhibitory concentration (IC50) in assay [2] (Homo sapiens, CD4 positive) came out at 117 µM.
In assay [1] (setting [3]), `CCCCCCn1ccc(C)c(NC(=O)C(Cc2ccc(C(C)(C)C(=O)O)cc2)NC(=O)Cc2ccc(C(F)(F)F)cc2)c1=O` (stereo not shown) [Compound 209] had a Kd of 0.19 µM. Moreover, the IC50 in assay [2] (Homo sapiens, CD4 positive) amounted to 92 µM.
In the same order, the values of `CCCCCn1ccc(C)c(NC(=O)C(Cc2ccc(C(C)(C)C(=O)O)cc2)NC(=O)Cc2ccc3ccccc3c2)c1=O` (stereo not shown) [Compound 192] are 1.2 µM and 169 µM.
In assay [1] (setting [3]), `COc1ccc(C(C)n2ccc(C)c(NC(=O)C(Cc3ccc(C(C)(C)C(=O)O)cc3)NC(=O)C(C)(C)c3ccc4ccccc4c3)c2=O)cc1` (stereo not shown) [Compound 184] showed a Kd of 1.3 µM. Besides, the IC50 in assay [2] (Homo sapiens, CD4 positive) was 53 µM.
For `COc1ccc(Cn2ccc(C)c(NC(=O)C(Cc3ccc(C(C)(C)C(=O)O)cc3)NC(=O)Cc3c(OC)ccc4ccccc34)c2=O)cc1` (stereo not shown) [Compound 187], in that order: 0.18 µM and 52 µM.
On to `COc1ccc(Cn2ccc(C)c(NC(=O)[C@H](Cc3ccc(C4(C(=O)O)CC4)cc3)NC(=O)Cc3ccc4ccccc4c3)c2=O)cc1` [Compound 218, 3-[2'-(S)-(2""-Naphthylacetyl)amino-3'-[4"-(1'"-carboxy)cyclopropyl]benzene]propanoylamino-1-(4-methoxybenzyl)-4-methyl-2-pyridone], for which, in assay [1] (setting [3]), the affinity, expressed as Kd, was 1.8 µM. The IC50 in assay [2] (Homo sapiens, CD4 positive) was 90 µM.
Compound `COc1ccc(Cn2ccc(C)c(NC(=O)C(Cc3ccc(C(C)(C)C(=O)O)cc3)NC(=O)C(C)(C)c3ccc(C(C)(C)C)cc3)c2=O)cc1` (stereo not shown) [Compound 186] registered a Kd in assay [1] (setting [3]) of 0.78 µM. For the same compound, in assay [2] (Homo sapiens, CD4 positive), the IC50 was found to be 41 µM.
As for `COc1ccc(Cn2ccc(C)c(NC(=O)C(Cc3ccc(C(C)(C)C(=O)O)cc3)NC(=O)C(C)(C)c3ccc(C(F)(F)F)cc3)c2=O)cc1` (stereo not shown) [Compound 217], the affinity in assay [1] (setting [3]), expressed as Kd, was 1.3 µM. In assay [2] (Homo sapiens, CD4 positive), the IC50 was determined as 70 µM.
`CCCCCCn1ccc(C)c(NC(=O)C(Cc2ccc(C(C)(C)C(=O)O)cc2)NC(=O)Cc2c(F)c(F)c(F)c(F)c2F)c1=O` (stereo not shown) [Compound 142]: binding in assay [1] (setting [3]) was characterised by a dissociation constant (Kd) of 1.3 µM. The IC50 in assay [2] (Homo sapiens, CD4 positive) was determined as 94 µM.
In the same order, the values of `COc1ccc(Cn2ccc(C)c(NC(=O)[C@H](Cc3ccc(C(C)(C)C(=O)O)cc3)NC(=O)Cc3ccc(C(C)C)cc3)c2=O)cc1` [Compound 94] are 0.21 µM and 156 µM.
Compound `COc1ccc(Cn2ccc(C)c(NC(=O)C(Cc3ccc(C(C)(C)C(=O)O)cc3)NC(=O)Cc3ccc(-c4ccccc4)cc3)c2=O)cc1` (stereo not shown) [Compound 158] registered a Kd in assay [1] (setting [3]) of 1.7 µM. Moreover, the IC50 in assay [2] (Homo sapiens, CD4 positive) was 75 µM.
`CCOc1ccc(Cn2ccc(C)c(NC(=O)C(Cc3ccc(C(C)(C)C(=O)O)cc3)NC(=O)Cc3ccc4ccccc4c3)c2=O)cc1` (stereo not shown) [Compound 135] registered a dissociation constant Kd in assay [1] (setting [3]) of 1.3 µM. Besides, in assay [2] (Homo sapiens, CD4 positive), the IC50 was found to be 35 µM.
The compound `COc1ccc(Cn2ccc(C)c(NC(=O)[C@H](Cc3ccc(C(C)(C)C(=O)O)cc3)NC(=O)[C@@H](C)c3ccc(CC(C)C)cc3)c2=O)cc1` [Compound 127] registered a Kd in assay [1] (setting [3]) of 1.4 µM. The IC50 in assay [2] (Homo sapiens, CD4 positive) was 52 µM.
For the compound `COc1ccc(Cn2ccc(C)c(NC(=O)C(Cc3ccc(C(C)(C)C(=O)O)cc3)NC(=O)COc3cccc4c(N(C)C)cccc34)c2=O)cc1` (stereo not shown) [Compound 175], the Kd in assay [1] (setting [3]) is 0.78 µM. In addition, the IC50 in assay [2] (Homo sapiens, CD4 positive) is 108 µM.
In the case of `Cc1ccn(CC2(c3ccccc3)CC2)c(=O)c1NC(=O)C(Cc1ccc(C(C)(C)C(=O)O)cc1)NC(=O)C(C)(C)c1ccc2ccccc2c1` (stereo not shown) [Compound 215], the dissociation constant Kd in assay [1] (setting [3]) worked out at 5.9 µM. Besides, in assay [2] (Homo sapiens, CD4 positive), the IC50 turned out to be 36 µM.
Compound `Cc1ccn(CC2CCCCC2)c(=O)c1NC(=O)C(Cc1ccc(C(C)(C)C(=O)O)cc1)NC(=O)Cc1cccc2ccccc12` (stereo not shown) [Compound 194] displayed a Kd in assay [1] (setting [3]) of 2.3 µM. The IC50 in assay [2] (Homo sapiens, CD4 positive) came out at 84 µM.
For `CCc1ccc(Cn2ccc(C)c(NC(=O)C(Cc3ccc(C(C)(C)C(=O)O)cc3)NC(=O)Cc3ccc4ccccc4c3)c2=O)cc1` (stereo not shown) [Compound 150], in that order: 4.6 µM and 60 µM.
In assay [1] (setting [3]), `COc1ccc(Cn2ccc(C)c(NC(=O)C(Cc3ccc(C(C)(C)C(=O)O)cc3)NC(=O)Cc3cccc4ccccc34)c2=O)cc1` (stereo not shown) [Compound 216] returned a Kd of 190 µM. Further, the IC50 in assay [2] was 193 µM.
Consider `CCC(CC)(C(=O)N[C@@H](Cc1ccc(C(C)(C)C(=O)O)cc1)C(=O)Nc1c(C)ccn(Cc2ccc(OC)cc2)c1=O)c1ccc2ccccc2c1` [Compound 123], for which the Kd in assay [1] (setting [3]) amounted to 0.84 µM. Besides, the IC50 in assay [2] (Homo sapiens, CD4 positive) was determined as 35 µM.
In assay [1] (setting [3]), `COc1ccc(Cn2ccc(C)c(NC(=O)C(Cc3ccc(C(C)(C)C(=O)O)cc3)NC(=O)Cc3ccc(Oc4ccccc4)cc3)c2=O)cc1` (stereo not shown) [Compound 172] had a Kd of 0.66 µM. The IC50 in assay [2] (Homo sapiens, CD4 positive) came out at 96 µM.
For `CCCCCCn1cc(-c2ccccc2)c(C)c(NC(=O)C(Cc2ccc(C(C)(C)C(=O)O)cc2)NC(=O)Cc2ccc3ccccc3c2)c1=O` (stereo not shown) [Compound 231], in that order: < 8 µM and 57 µM.
`Cc1ccn(CCCCC(C)C)c(=O)c1NC(=O)C(Cc1ccc(C(C)(C)C(=O)O)cc1)NC(=O)Cc1ccc2ccccc2c1` (stereo not shown) [Compound 145] yielded a Kd in assay [1] (setting [3]) of 0.84 µM. For the same compound, the IC50 in assay [2] (Homo sapiens, CD4 positive) was determined as 56 µM.
In the same order, the values of `COc1ccc(Cn2cc(Br)c(C)c(NC(=O)[C@H](Cc3ccc(C(C)(C)C(=O)O)cc3)NC(=O)Cc3ccc4ccccc4c3)c2=O)cc1` [Compound 220, 3-[2'-(S)-(2""-Naphthylacetyl)amino-3'-[4"-(1'"-carboxy-1'"-methyl)ethyl]benzene]propanoylamino-5-bromo-1-(4-methoxybenzyl)-4-methyl-2-pyridone] are 0.17 µM and 31 µM.
In assay [1] (setting [3]), `COc1ccc(Cn2ccc(C)c(NC(=O)C(Cc3ccc(C(C)(C)C(=O)O)cc3)NC(=O)Cc3ccc4ccccc4c3)c2=O)cc1C` (racemic) [Compound 149, 3-[2'-(R,S)-(2""-Naphthylacetyl)amino-3'-[4"-(1'"-carboxy-1"-methyl)ethyl]benzene]propanoylamino-1-(4-methoxy-3-methylbenzyl)-4-methyl-2-pyridone] returned a dissociation constant (Kd) of 3.8 µM. For the same compound, in assay [2] (Homo sapiens, CD4 positive), the IC50 was 54 µM.
In assay [1] (setting [3]), `COc1ccc(Cn2ccc(C)c(NC(=O)[C@H](Cc3ccc(C(C)(C)C(=O)O)cc3)NC(=O)Cc3ccc(Br)c4ccccc34)c2=O)cc1` [Compound 111] gave a Kd of 0.51 µM. Further, the IC50 in assay [2] (Homo sapiens, CD4 positive) came to 64 µM.
With `COc1ccc(Cn2ccc(C)c(NC(=O)[C@H](Cc3ccc(C(C)(C)C(=O)O)cc3)NC(=O)C(C)(C)c3ccc4ccccc4c3)c2=O)cc1` [Compound 107], the 50% inhibitory concentration (IC50) in assay [2] (Homo sapiens) worked out at 48 µM.
On to `COc1ccc(Cn2ccc(C)c(NC(=O)[C@H](Cc3ccc(CC(=O)O)cc3)NC(=O)COc3cccc4c(N(C)C)cccc34)c2=O)cc1` [Compound 167], for which the Kd in assay [1] (setting [3]) amounted to 1.2 µM.
